Source: US11591330B2, “HIF-2a small-molecule inhibitor and use thereof” (China Medical University, priority 2018, dated 2023)

Assays:
[1] = test system: human breast cancer MCF-7 cells; assay: MTT/CCK8 cell proliferation analysis; type: cell-based
Protocol: (§1) MCF-7 and OVCAR-3 cells were taken out from liquid nitrogen, thawed in a water bath at 37° C., and centrifuged at 1000 rpm for 5 min, the supernatant was removed, 1 ml of DMEM medium with 10% fetal bovine serum was added to MCF-7 cells, the cell suspension was transferred into a 25 cm2 cells culture flask, and a medium with 10% fetal bovine serum was added for culture.
(§2) Well-growing human breast cancer MCF-7 cells, human breast cancer stem cell-like cell MCF-7 MS cells, human ovarian cancer OVCAR-3 cells, human ovarian cancer stem cell-like cell OVCAR-3 cells were taken, digested, resuspended, and inoculated in a 96-well plate with the number of cells per well being 5×10^3; after 24 hours of culture, different concentrations of ComA, ComA combined with PTX, or ComA combined with DDP were administrated for treating the cells for 48 hours, with 3 replicate wells for each concentration; 5 mg/ml of MTT/cck8 was added for treatment for 2 h, followed by shaking for 10 min in a shaker; the absorbance at 570 nm (for measuring MTT)/450 nm (for measuring CCK8) was measured with a microplate reader, the inhibition rate was calculated according to the formula: inhibition rate %=[1−(dosing well-zero adjustment well)/(control well-zero adjustment well)]*100%; IC50 was calculated with SPSS16.0 software, and the experiment was repeated three times.

[2] = test system: human ovarian cancer OVCAR-3 cells; assay: MTT/CCK8 cell proliferation analysis; type: cell-based; settings: MTT/cck8, FIG. 5
Protocol: as §1, §2

[3] = test system: human breast cancer stem cell-like MCF-7 MS cells; assay: MTT/CCK8 cell proliferation analysis; type: cell-based
Protocol: (§3) When MCF-7 or OVCAR-3 cells grew to 70%-80%, the medium was discarded, PBS was added for washing 3 times, and trypsin was added for digestion for 1 min; the DMEM medium containing 10% fetal calf serum was added to stop the digestion, centrifuged at 1000 rpm for 5 min, the supernatant was discarded, PBS was added to resuspend cells, centrifuged at 1000 rpm for 5 min, the supernatant was discarded, 2 ml DMEM-F12 conditioned medium was added to resuspend cells, and the cells were cultured in suspension at 37° C., 5% CO2 in a constant-humidity environment.
as §2

[4] = test system: human ovarian cancer stem cell-like OVCAR-3 MS cells; assay: MTT/CCK8 cell proliferation analysis; type: cell-based
Protocol: as §3, §2

[5] = molecular target: T1, HIF-2α (Homo sapiens, UniProt Q99814); assay: Western blot analysis of HIF-2α expression in MCF-7 MS cells; type: cell-based; settings: 48 h, FIG. 8
T1 construct: endogenous in cells; host or cells: MCF-7 MS (mammosphere / stem cell-like cells induced from human breast cancer MCF-7)
T1 sequence (Q99814 whole entry): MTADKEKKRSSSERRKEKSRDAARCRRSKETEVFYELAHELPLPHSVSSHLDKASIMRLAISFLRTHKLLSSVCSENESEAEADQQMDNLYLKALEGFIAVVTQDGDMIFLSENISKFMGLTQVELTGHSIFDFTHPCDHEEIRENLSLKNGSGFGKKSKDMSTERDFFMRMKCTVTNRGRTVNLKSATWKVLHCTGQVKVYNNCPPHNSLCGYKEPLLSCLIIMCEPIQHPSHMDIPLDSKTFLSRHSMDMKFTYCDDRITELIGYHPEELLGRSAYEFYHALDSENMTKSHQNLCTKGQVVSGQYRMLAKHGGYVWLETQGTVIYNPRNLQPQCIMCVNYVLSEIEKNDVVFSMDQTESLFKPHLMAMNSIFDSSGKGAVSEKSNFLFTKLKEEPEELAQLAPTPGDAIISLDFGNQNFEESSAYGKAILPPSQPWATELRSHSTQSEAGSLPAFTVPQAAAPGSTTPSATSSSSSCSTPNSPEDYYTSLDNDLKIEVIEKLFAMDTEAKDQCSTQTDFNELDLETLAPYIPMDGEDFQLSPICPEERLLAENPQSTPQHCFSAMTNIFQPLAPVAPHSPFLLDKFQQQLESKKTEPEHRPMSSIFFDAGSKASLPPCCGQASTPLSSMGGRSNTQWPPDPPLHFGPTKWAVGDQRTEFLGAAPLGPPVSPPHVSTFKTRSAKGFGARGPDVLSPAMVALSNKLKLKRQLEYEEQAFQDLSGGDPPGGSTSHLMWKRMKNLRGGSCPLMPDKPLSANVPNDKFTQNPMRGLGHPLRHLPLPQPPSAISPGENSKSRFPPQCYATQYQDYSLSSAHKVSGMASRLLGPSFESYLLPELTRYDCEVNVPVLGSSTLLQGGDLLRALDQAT
Protocol: (§4) The human breast cancer stem cell-like MCF7 MS cells were divided into control (Ctrl) group, PTX alone treatment group, ComA alone treatment group, and ComA combined with PTX treatment group, treated for 48 h, and then collected; the cells were washed twice with pre-cooled 1×PBS, and PBS was discarded; 100-200 μl RIPA cell lysis solution (RIPA cell lysis solution:Protease inhibitor cocktail=250:1) was added according to the amount of cells; the mixture was transferred to an EP tube for lysis on ice for 40-60 min, and centrifuged at 4° C. at 12000 rpm/min for 15 minutes; and the supernatant was taken and stored at −80° C. for later use.
(§5) Protein standard curve was prepared (in a 96-well plate), with the configuration system and absorbance shown in the table below, wherein the protein solution was placed at 37° C. and shaken for 30 min, the OD value was measured at 570 nm wavelength, and the protein standard curve was drawn: the abscissa being the standard protein content, and the ordinate being the absorbance value (OD value) under the 570 nm wavelength, thereby drawing a standard curve.
(§6) The samples were treated with 6× protein loading buffer. According to the quantified protein concentration, 30 μl:50 μg protein sample per well was loaded, the well was filled with PBS up to 30 μl when the sample was insufficient, and the samples were denatured in a metal bath at 100° C. for 10 min. […]

[6] = test system: HIF-1α; assay: Western blot analysis of HIF-1α expression in MCF-7 MS cells; type: cell-based, human; settings: 48 h, FIG. 8
Protocol: as §4, §5, §6

SMILES: Cc1ccn2c(=O)cc(CN(Cc3ccccc3)Cc3ccco3)nc2c1 [ComA]
- inhibitory activity on proliferation ([1]; MCF-7 cells, MTT/cck8, FIG. 4): obvious inhibitory activity
- time dependence of anti-tumor cell and anti-tumor stem cell activity ([1]; stated for tumor cells and tumor stem cells together): obviously time-dependent
- inhibitory activity on proliferation [2]: obvious inhibitory activity
- enhancement of the inhibitory effect of paclitaxel (PTX) ([3]; ComA combined with PTX, 48 hours, FIG. 6): can enhance the inhibitory effect
- inhibitory activity on proliferation ([3]; MTT/cck8, FIG. 4): obvious inhibitory activity
- enhancement of the inhibitory effect of cisplatin (DDP) ([4]; ComA combined with DDP, 48 hours, FIG. 7): can enhance the inhibitory effect
- inhibitory activity on proliferation ([4]; MTT/cck8, FIG. 5): obvious inhibitory activity
- expression of HIF-2α ([5]; ComA alone): obviously inhibited the expression of HIF-2α
- expression of HIF-2α ([5]; ComA combined with PTX): obviously inhibited the expression of HIF-2α
- expression of HIF-1α [6]: no obvious inhibitory effect
